Measurements reported in patent publication US20240327382A1 (ALMAC DISCOVERY LIMITED, priority 2021, published 2024).

Legend:
[1] = Caco-2 permeability assay; format: in vitro ADME; details: human, apical to basolateral (A:B), read-out: caco-2 Papp AB
Description: Caco-2 cells are commonly used as an in vitro model for the prediction of human intestinal absorption of test compounds. When cultured, Caco-2 cells (derived from a human colorectal carcinoma) spontaneously differentiate into monolayers of polarised enterocytes. The cells are seeded on multiwell-insert plates and form a confluent monolayer over 20 d before the assay. On day 20, compound was added to the apical side of the membrane and the flux of the compound across the monolayer was monitored over 2 h. All data was generated at Cyptotex.

[2] = Thermodynamic solubility assay; format: physicochemical; details: aqueous buffer, thermodynamic from solid, PBS buffer pH 7.4, read-out: TSol
Description: Test compound (˜0.5 mg, accurately weighed) was suspended in PBS buffer pH 7.4 (Dulbecco A) to a concentration of 1 mg/mL in a high recovery glass vial in duplicate. The suspensions were shaken at 300 rpm at rt for 64 h. About 250 μL of suspension were then transferred to a MultiScreen® Solubility filter plate (Millipore) in duplicate. Concentrations of the filtrates were then quantified against a 5-point calibration curve in a mixture of acetonitrile/PBS buffer (top concentration […]). After filtration and matrix match, the calibration and assay plates were analysed on a Bioteck Synergy 4 plate reader (240-400 nm). Final concentration of the test compound in the filtrate was calculated using the slope of the calibration curve.

[3] = target: T1, USP19 (Homo sapiens, UniProt O94966); assay: Cellular target engagement using HTRF assay (USP19-Flag transfected cells); format: cell-based; details: HEK293T cells; read-out: HTRF TE IC50
T1 construct: expressed in transfected cells; host or cells: HEK293T
T1 sequence (O94966 1-1318): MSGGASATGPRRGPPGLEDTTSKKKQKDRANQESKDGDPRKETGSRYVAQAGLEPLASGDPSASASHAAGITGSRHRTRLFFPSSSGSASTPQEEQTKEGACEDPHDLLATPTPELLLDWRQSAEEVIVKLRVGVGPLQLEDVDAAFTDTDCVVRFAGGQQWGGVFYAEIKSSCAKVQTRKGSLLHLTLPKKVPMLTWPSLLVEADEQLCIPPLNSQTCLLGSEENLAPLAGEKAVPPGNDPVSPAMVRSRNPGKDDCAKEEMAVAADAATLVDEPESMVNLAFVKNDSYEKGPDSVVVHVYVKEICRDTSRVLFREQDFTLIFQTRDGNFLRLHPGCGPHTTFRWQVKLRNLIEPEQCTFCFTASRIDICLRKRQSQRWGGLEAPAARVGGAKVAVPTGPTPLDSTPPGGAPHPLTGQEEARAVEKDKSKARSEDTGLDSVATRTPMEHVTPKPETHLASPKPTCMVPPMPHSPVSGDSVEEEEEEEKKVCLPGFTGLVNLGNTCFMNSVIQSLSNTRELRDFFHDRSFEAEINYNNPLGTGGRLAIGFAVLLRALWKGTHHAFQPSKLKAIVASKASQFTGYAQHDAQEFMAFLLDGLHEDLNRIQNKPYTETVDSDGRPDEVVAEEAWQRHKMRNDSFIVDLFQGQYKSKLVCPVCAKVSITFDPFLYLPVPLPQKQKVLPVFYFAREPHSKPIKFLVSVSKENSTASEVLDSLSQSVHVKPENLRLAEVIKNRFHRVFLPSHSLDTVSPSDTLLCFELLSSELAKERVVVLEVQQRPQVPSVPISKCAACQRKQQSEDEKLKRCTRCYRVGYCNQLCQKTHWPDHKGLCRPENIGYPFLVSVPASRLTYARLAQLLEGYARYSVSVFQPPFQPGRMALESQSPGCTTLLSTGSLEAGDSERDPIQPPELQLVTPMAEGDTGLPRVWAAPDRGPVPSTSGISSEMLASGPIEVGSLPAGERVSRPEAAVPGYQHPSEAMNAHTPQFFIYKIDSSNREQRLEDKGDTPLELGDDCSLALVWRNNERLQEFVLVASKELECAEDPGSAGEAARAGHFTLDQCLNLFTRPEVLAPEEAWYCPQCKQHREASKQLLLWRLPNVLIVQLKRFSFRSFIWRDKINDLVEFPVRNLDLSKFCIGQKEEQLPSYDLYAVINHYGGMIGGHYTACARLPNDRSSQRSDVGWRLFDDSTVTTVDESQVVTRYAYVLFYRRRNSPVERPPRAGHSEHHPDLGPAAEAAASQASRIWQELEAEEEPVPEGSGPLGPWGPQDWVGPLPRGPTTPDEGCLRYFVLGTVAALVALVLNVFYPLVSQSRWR
Description: USP19 cellular target engagement was determined in a homogenous time resolved fluorescence (HTRF) assay using HA-tagged ubiquitin vinyl pentynyl sulfone (VPS) probe (UbiQ-193, UbiQ Bio) and a USP19-Flag overexpression construct. Inhibitors were stored as 10 mM DMSO stocks in an inert environment (low humidity, dark, low oxygen, rt) using the StoragePod® system (Roylan Developments). USP19-Flag transfected cells were incubated with serially diluted compound in an 11 point dose response curve (from 50 μM to 0.01 nM) for 2 h and then washed in PBS and lysed. Unless otherwise stated, all HTRF reagents were purchased from CisBio. HTRF assays using cell lysates were completed in 384 well plates (Greiner) in a 20 μL total volume. Cell lysates were incubated with HA-tagged ubiquitin VPS probe for 40 min in PPI detection buffer prior to addition of anti-HA and anti-FLAG HTRF detection reagents. HTRF was measured every 1 h for 18 h using a Pherastar FSX plate reader (excitation of 337 nm, emission of 620/665 nm). Data was normalised to DMSO (no compound controls) and fitted using IC50 values derived using Prism (GraphPad) using nonlinear regression curve fitting.

[4] = Kinetic solubility (KSol); format: physicochemical
[5] = In vivo mouse PK; details: C57BL/6N mice, IV 1 mg/kg

| Papp A→B at 2 h [1] | solubility thermodynamic at 64 h [2] | IC50 [3] | KSol [4] | clearance [5] | half-life ([5]; read-out: IV t1/2 (converted)) | Structure (SMILES) |
| --- | --- | --- | --- | --- | --- | --- |
| 1 ×10⁻⁶ cm/s | 1 µM | 3 µM | – | – | – | O=C(N1CC[C@@H](Cn2ccc(-c3ccccc3)cc2=O)C2(CCCC2)C1)N1CCNC[C@H]1c1ccccc1 |
| – | – | – | 1 µM | – | – | C[C@H](CC(F)(F)F)C(=O)N1CC[C@@](O)(Cn2cnc(-c3ccccc3)cc2=O)C2(CCCC2)C1 [F 11 9 N W 11] |
| – | 1 µM | – | – | 3 mL/min/kg | 2 h | N[C@@H]1CCN(C(=O)N2CC[C@@](O)(Cn3cnc(-c4ccccc4)cc3=O)C3(CCCC3)C2)[C@H](c2ccccc2)C1 [F 11 9 N W032, reference compound] |
